Results from PMC4381587, “A novel PI3K inhibitor PIK-C98 displays potent preclinical activity against multiple myeloma” (Oncotarget, 2014).
pIC50: −log10 of the molar value.

Columns and labels:
PDK1 = system: T1, PDK1; experiment: Kinase activity in cell-free assay, PDK1; type: biochemical; conditions: enzymatic system, even at a concentration of 300 μM
T1 construct: purchased Reaction Biology Corp., Malvern, PA, USA
Experimental: (§1) To confirm this hypothesis, the inhibitory potency of C98 on PI3K enzymes was measured in a cell-free system with individual recombinant human PI3K isoforms. […] To further evaluate its specificity on PI3K, the effects of C98 on other associated kinases AKT, PDK1, and mTOR were also measured in the enzymatic systems. […] Therefore, C98 preferred to inhibit PI3K activity.
(§2) Kinase activity in the presence of C98 was performed by using the HotSpot technology (Reaction Biology Corp., Malvern, PA, USA) as described previously.

p38 = experiment: Immunoblotting of p38 phosphorylation in OPM2 and JJN3 cells; type: cell-based, human; conditions: OPM2 and JJN3, 24 hr
Experimental: (§3) (B) LP1 and JJN3 cells were starved overnight, then treated with C98 or S14161 for 2 hr, followed by IGF-1 (100 ng/mL) for 15 min. Cells were then prepared for the analysis of the expression of p-AKT, t-AKT, p-IGF-1R, and IGF-1R by immunoblotting. (C) OPM2 and JJN3 cells were treated with increasing concentrations of C98 for 24 hr before being applied to immunoblotting against p-ERK, t-ERK, p-P38, t-P38, p-Src, t-Src, p-STAT3, or t-STAT3. GAPDH and β-actin were used as loading controls.
To further clarify the effects of C98 on other signaling pathways associated with PI3K signaling, we evaluated ERK and p38, both of which mediate extracellular signaling similar to PI3K. […] We also checked the phosphorylation status of STAT3, a signal transducer and activator of transcription. […] Therefore, C98 had no effects on these kinases/proteins associated with PI3K signaling.
(§4) The immunoblotting assays were performed as described previously. IRDye 680 goat anti-mouse and IRDye 800CW goat anti-rabbit antibodies were from Odyssey (San Ramon, CA, USA).

[1] = system: AKT phosphorylation in LP1 and JJN3 cells; experiment: Immunoblotting of AKT phosphorylation in starved, IGF-1-stimulated LP1 and JJN3 cells; type: cell-based; conditions: 2 hr, then IGF-1 100 ng/mL 15 min
Experimental: as §3
To find out whether C98 also interfered with other signaling pathways, we first checked the receptor tyrosine kinase IGF-1R, which mediates PI3K activation in MM cells in the presence of IGF-1. Starved MM cells LP1 and JJN3 were incubated with C98 followed by IGF-1 stimulation. […] Moreover, we also measured the expression of PTEN, a negative regulator of PI3K signaling, in MM cells after C98 treatment.
as §4

OPM2 xenograft = experiment: OPM2 myeloma xenograft in nude mice; type: in vivo; conditions: 80 mg/kg oral daily
[2] = Pharmacokinetic study in nude mice, oral; type: in vivo; conditions: mouse, one oral bolus 40 mg/kg, plasma
Experimental: To further characterize C98 in the treatment of MM, we determined its pharmacokinetic parameters. One bolus of 40 mg/kg of C98 was orally administrated, blood samples were then collected at the time points of 0.167, 0.5, 1, 2, 4, 6, 8, and 24 hr.
Prior to dose administration, nude mice (Shanghai Slac Laboratory Animal Co. Ltd., Shanghai, China) were fasted overnight with free access to water in the regular light-dark cycle. A group of 9 mice received an oral dose of C98 at 40 mg/kg. Blood samples were collected from three mice (n = 3) at each time points as follows: 0.167, 0.5, 1, 2, 4, 6, 8, and 24 hr. Blood samples (100 μL) were immediately mixed with 10 μL of EDTA and plasma was obtained by centrifugation at 1.3 × 10^4 rpm for 10 min. Samples were stored at –80°C for LC-MS/MS analysis. Plasma concentration versus time was analyzed using WinNolin software (version 6.2.1, Pharsight, USA) and the pharmacokinetic parameters maximum drug concentration (Cmax), time to reach maximum drug concentration (Tmax), half life (t1/2), area under the plasma level-time curve (AUC) were calculated.
Concentrations of C98 in plasma and in tumor tissues were analyzed by a LC-MS/MS method as described previously. Chromatographic separation was achieved using an Agela Venusil XBP C18 column (50 × 2.1 mm; […] particle size, Bonna-Agela Technologies, Tianjin, China). The column temperature was maintained at 40°C. Gradient elution at a flow rate of 0.3 mL/min was performed using the mobile phases: A, acetonitrile: water: formic acid (5: 95: 0.1, v: v: v) and B, acetonitrile: water: formic acid (95: 5: 0.1, v: v: v).
The mass spectrometer was operated in the negative ionization mode. The ion transitions for the multiple reaction monitored were: C98, 346.6 (M-H)→312.7; betamethasone (internal standard, IS), 391.1 (M-H)→ 361.4, with a dwell time of 100 ms per transition. After setting the collision energy and mass transition for C98 and the Internal standard, all other parameters were optimized for the best sensitivity. Data was processed by the Analyst 1.5.2 data collection and integration software (AB Sciex, Framingham, MA).
Supplementary Figure S5: The time-concentration profiles of C98 in plasma after oral administration. Nude mice were orally administrated C98 at a dose of 40 mg/kg. Blood species were then collected at a serial of time points (0, 0.167, 0.5, 1, 1.5, 2, 4, 6, 8, 24 hr) and subject to LC-MS/MS analysis after treatment as described in the Methods section. Resultant plasma concentration versus time data was analyzed using WinNolin software.
(also on this page, place not known: www.impactjournals.com/oncotarget/ Oncotarget, Materials 2014 Supplementary) […]

mTOR = system: T2, mTOR; experiment: Kinase activity in cell-free assay, mTOR; type: biochemical; conditions: enzymatic system, even at a concentration of 300 μM
T2 construct: purchased Reaction Biology Corp., Malvern, PA, USA
Experimental: as §1, §2

[3] = biological target: recombinant human PI3K isoform β (Homo sapiens, UniProt P42338); experiment: Kinase activity in cell-free assay (HotSpot), PI3Kβ; type: biochemical; conditions: read-out: IC50 against PI3K β isoform
Sequence of recombinant human PI3K isoform β (P42338 whole entry, canonical isoform): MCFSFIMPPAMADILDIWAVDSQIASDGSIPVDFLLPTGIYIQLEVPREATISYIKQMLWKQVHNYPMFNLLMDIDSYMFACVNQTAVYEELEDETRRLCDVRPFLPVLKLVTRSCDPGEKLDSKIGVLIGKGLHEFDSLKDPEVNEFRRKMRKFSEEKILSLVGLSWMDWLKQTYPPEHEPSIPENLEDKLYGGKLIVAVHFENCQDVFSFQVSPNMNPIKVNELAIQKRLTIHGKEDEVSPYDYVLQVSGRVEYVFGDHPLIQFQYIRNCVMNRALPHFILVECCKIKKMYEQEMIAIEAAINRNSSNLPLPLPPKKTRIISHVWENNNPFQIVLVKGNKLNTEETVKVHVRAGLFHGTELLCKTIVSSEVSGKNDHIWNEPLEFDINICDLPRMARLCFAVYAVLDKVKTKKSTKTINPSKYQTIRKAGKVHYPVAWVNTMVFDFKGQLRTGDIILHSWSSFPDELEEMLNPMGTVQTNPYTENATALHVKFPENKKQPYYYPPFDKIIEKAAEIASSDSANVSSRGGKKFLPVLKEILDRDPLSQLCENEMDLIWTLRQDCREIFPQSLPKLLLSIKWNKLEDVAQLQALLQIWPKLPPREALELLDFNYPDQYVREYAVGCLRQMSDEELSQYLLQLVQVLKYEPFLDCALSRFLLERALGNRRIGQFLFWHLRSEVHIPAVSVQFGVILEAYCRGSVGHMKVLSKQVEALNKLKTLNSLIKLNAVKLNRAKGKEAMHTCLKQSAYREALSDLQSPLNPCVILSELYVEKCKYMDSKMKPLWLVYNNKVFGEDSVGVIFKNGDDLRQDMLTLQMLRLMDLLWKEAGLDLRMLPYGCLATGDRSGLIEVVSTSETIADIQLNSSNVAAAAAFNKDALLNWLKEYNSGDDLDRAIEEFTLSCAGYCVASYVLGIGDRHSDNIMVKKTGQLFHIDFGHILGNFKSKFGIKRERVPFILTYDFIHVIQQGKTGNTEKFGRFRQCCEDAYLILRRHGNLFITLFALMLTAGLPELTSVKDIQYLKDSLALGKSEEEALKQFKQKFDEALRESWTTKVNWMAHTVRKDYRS
Sequence of recombinant human PI3K isoform β (P27986 whole entry partner, canonical isoform): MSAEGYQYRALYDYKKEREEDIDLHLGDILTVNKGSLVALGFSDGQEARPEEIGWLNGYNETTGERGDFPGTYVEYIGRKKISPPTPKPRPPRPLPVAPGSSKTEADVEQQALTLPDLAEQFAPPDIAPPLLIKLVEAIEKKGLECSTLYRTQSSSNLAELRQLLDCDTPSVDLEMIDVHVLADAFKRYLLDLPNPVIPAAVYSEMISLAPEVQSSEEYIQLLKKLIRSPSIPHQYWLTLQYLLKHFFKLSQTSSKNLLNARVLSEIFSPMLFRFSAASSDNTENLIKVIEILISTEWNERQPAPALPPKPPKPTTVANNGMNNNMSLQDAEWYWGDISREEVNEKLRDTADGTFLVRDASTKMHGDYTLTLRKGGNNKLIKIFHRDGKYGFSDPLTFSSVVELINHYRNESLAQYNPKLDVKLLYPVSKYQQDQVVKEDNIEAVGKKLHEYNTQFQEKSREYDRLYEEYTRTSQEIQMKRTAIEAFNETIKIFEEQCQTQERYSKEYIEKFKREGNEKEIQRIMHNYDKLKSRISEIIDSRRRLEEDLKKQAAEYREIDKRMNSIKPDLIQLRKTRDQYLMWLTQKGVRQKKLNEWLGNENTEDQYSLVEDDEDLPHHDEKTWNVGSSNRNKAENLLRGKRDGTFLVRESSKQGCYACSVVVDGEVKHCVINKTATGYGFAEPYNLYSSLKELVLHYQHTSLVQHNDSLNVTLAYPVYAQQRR
Experimental: as §1
Figure 1 C98 inhibits PI3K activity (A) Chemical structure of C98. (B) OPM2 cells were starved overnight and then treated with six compounds identified from the virtual screening for 2 hr, followed by IGF-1 stimulation for 15 min. Cell lysates were prepared for AKT expression and phosphorylation analyses. The known PI3K inhibitor S14161 was used as a positive control. (C) OPM2 cells were starved overnight, then treated with C98 at indicated concentration (25, 50 and 100 μM) or S14161 (100 μM) for 2 hr, followed by IGF-1 (100 ng/mL) stimulation for 15 min Cell lysates were prepared for AKT expression and phosphorylation analyses. […] Activity of each kinase was determined with HotSpot technology as described in the Methods section “Kinase activity in cell-free assay”. […]

## N#C/C(=C\C=C\c1ccc(-c2cc(Cl)ccc2Cl)o1)C(N)=S [C98]
PDK1
  suppression of PDK1 activity: failed to suppress
p38
  phosphorylation level of p38: failed to decrease
[1]
  AKT phosphorylation: suppressed AKT phosphorylation
OPM2 xenograft; 16-day treatment
  tumors decreased to % of the vehicle control: 45%
OPM2 xenograft; 16 days
  tumor volume at the end of the experiment: 605.8 ± 115.7 mm^3
[2]; read-out: mean residence time (MRT)
  MRT: 4.48 h
[2]; read-out: median peak concentration (Cmax)
  Cmax: 367 ng/mL
[2]; read-out: time to maximal concentration (Tmax)
  Tmax: 0.5 h
[2]; nude, po, 40 mg/kg, read-out: half-life (t1/2) (converted)
  half-life: 2.03 h
mTOR
  suppression of mTOR activity: failed to suppress
[3]
  pIC50: 5.79
